According to paper PMC10564737, “Structure-based design of a phosphotyrosine-masked covalent ligand targeting the E3 ligase SOCS2” (Nature Communications, 2023):
“And” between values parts separate entries of the source, which are not always exact repeats. Equal values may be shown once.

How the values were obtained:
SBC2 [1] = biological target: T1, SBC2 (Homo sapiens, UniProt O14508); assay: Surface plasmon resonance (SPR) with SBC2 immobilized on the chip; assay type: binding
T1 construct: SOCS2 (amino acids 32–198); His6 (N, cleaved yes); made in house; host or cells: E. coli BL21(DE3)
T1 sequence (O14508 32-198): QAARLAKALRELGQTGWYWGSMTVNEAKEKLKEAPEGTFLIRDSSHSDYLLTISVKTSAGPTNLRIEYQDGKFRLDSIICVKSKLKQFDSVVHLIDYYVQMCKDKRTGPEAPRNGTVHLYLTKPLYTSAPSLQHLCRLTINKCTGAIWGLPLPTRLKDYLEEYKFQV
T1 sequence (Q15370 1-104 partner limits assumed): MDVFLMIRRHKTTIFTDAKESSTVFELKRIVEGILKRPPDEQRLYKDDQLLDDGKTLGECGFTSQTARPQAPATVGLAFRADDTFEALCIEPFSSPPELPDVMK
T1 sequence (Q15369 17-112 partner limits assumed): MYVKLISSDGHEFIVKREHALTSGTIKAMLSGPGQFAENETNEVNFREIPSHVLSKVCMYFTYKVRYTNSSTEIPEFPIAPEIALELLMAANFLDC
Excerpt: (§1) First, we decided to optimize the N-terminal region of 1 while maintaining the N-methylamide group at the C-terminus. To generate analogs rapidly, we employed a solid phase synthesis using methyl indole AM resin. After Fmoc deprotection, the resin was loaded with Fmoc-Tyr (PO(OBzl)2)-OH[29]. Subsequent coupling with various commercially available carboxylic acids and cleavage with TFA allowed the rapid synthesis of N-methylcarboxamide phosphotyrosines (Supplementary Fig. 1). We introduced different substituents at the N-terminus to cover a range of physicochemical properties (e.g. alicyclic, heterocyclic, aromatic with electron-withdrawing and electron-donating groups) to maximize potential interactions (see Table 1 for representative examples). Binding affinities of the synthesized compounds for SOCS2 were measured via two orthogonal biophysical binding assays: (1) surface plasmon resonance (SPR) with SBC2 immobilized on the chip (Supplementary Fig. 7); and (2) ^19F ligand-observed displacement NMR assays, providing two orthogonal biophysical measurements of dissociation constants (KD)[29],[31]. We found an excellent correlation between the KD values measured via the two techniques (Table 1). Para-substituted benzyl moieties yielded the greatest contributions to binding affinity and there were only slight differences between electron-withdrawing groups such as a methyl ester and electron-donating such as methoxy group.
SPR experiments were performed using a Biacore S200 instrument (GE Healthcare) in 20 mM HEPES pH 7.5, 150 mM NaCl, 1 mM TCEP, 0.005% Tween20, 2% DMSO buffer at 10 °C. Biotinylated SBC2 was immobilized onto a chip surface (the final surface density of biotinylated SBC2 was ~3000–4000 RU). AviTagged-SBC was biotinylated using BirA enzyme as per manufacturer’s protocol (Avidity). Compounds were serially diluted in the running buffer and injected individually: contact time 60 s, flow rate 30 μL/min, dissociation time 150 s, using a stabilization period of 30 s and syringe wash (50% DMSO) between injections. Data analysis was carried out using Biacore Evaluation Software (GE Healthcare). All data were double-referenced for reference surface and blank injection. The processed sensograms were fit to a steady-state affinity using a 1:1 binding model for KD estimation.

SBC2 [2] = biological target: T1, SBC2; assay: 19F ligand-observed displacement (CPMG) NMR assay; assay type: binding; details: Table 1, n = 1
Excerpt: as §1, with “We introduced different substituents at the N-terminus to cover a range of physicochemical properties (e.g. alicyclic, heterocyclic, aromatic with electron-withdrawing and electron-donating groups) to maximize potential interactions (see Table 1 for representative examples).” left out, “Para-substituted benzyl moieties yielded the greatest contributions to binding affinity and there were only slight differences between electron-withdrawing groups such as a methyl ester and electron-donating such as methoxy group.” left out
Experiments were performed using an Avance III 500 MHz Bruker spectrometer equipped with a 5 mm CPQCI 1H/19 F/13 C/15 N/D Z-GRD cryoprobe at 298 K as described previously. Spectra were recorded using 80 scans of a CPMG pulse sequence that attenuates broad resonances. […] All NMR data were processed and analyzed using TopSpin (Bruker). The dissociation constant was calculated as described previously.

SBC2 [3] = biological target: T1, SBC2; assay: Isothermal titration calorimetry (ITC), direct titration; assay type: binding; details: for Kd: ITC KD, direct ITC, 298 K
Description: Experiments were performed with ITC200 instrument (Malvern) in 100 mM HEPES pH 7.5, 50 mM NaCl, 0.5 mM TCEP at 298 K. The ITC titration consisted of 0.4 μl initial injection (discarded during data analysis) followed by 19 of 2 μl injections at 120 s interval between injections. 1 mM of the ligands in 2–4% DMSO were titrated into 100 μM SBC2. […] Binding data was subtracted from a control titration where ligand was titrated into buffer, and fitted using a one-set-of-site binding model to obtain dissociation constant (Kd), binding enthalpy (ΔH), and stoichiometry (N) using MicroCal PEAQ-ITC Analysis Software1.1.0.1262 and MicroCal ITC-ORIGIN Analysis Software 7.0 (Malvern).

[4] = biological target: GHR pY595 peptide (Homo sapiens) (UniProt P10912); details: cited from earlier work
Chain of GHR pY595 peptide (Homo sapiens) (P10912 whole entry, looked up, tested part not stated): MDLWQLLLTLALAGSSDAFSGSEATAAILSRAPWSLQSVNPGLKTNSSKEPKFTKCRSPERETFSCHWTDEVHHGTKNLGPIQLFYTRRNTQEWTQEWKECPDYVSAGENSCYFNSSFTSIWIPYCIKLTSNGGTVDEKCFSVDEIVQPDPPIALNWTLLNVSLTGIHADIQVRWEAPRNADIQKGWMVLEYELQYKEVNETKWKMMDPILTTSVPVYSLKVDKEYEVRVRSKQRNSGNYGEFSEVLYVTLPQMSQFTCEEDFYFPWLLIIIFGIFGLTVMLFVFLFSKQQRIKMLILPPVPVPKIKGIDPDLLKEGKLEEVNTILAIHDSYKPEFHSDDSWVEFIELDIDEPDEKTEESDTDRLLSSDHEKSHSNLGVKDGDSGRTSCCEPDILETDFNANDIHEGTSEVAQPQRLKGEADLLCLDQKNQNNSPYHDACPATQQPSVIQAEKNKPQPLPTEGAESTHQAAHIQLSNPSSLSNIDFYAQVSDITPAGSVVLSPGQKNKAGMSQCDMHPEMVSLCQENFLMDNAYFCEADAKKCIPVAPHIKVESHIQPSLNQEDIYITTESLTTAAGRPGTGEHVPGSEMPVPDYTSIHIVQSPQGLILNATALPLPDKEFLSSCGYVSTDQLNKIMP

[5] = Table 2, second-round library, n = 1

Chain of SOCS2 SH2 (O14508 45-159): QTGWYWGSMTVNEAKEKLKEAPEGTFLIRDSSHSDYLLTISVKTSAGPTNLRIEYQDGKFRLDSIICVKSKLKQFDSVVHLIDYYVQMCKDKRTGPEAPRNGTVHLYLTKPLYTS

CNC(=O)[C@H](Cc1ccc(OP(=O)(O)O)cc1)NC(C)=O [Compound 1]
Kd (SBC2 [1]; Table 1, n = 1): 269 µM | Kd (SBC2 [2]): 186 µM | weaker binding than the full phosphorylated peptide (SBC2 [3]): 100 fold | Kd (SBC2 [3]): 192 µM and 190 µM

CNC(=O)[C@H](Cc1ccc(OP(=O)(O)O)cc1)NC(=O)Cc1ccc(F)cc1 [Compound 5]
Kd (SBC2 [1]; Table 1, n = 1): 49 µM | Kd (SBC2 [2]): 32 µM

Cc1cccc(CNC(=O)[C@H](Cc2ccc(OP(=O)(O)O)cc2)NC(=O)Cc2ccc(F)cc2)c1 [Compound 10, (S)-4-(2-(2-(4-fluorophenyl)acetamido)-3-((3-methylbenzyl)amino)-3-oxopropyl)phenyl phosphate]
improvement of binding affinity compared to 5 (SBC2 [1]; SPR): 10 fold | Kd (SBC2 [1]; [5]): 3.7 µM | ITC ΔG (SBC2 [3]): -8.12 kcal/mol | ITC −TΔS (SBC2 [3]): -2.31 kcal/mol | Kd (SBC2 [3]): 1.1 µM

C=CCc1cccc(CNC(=O)[C@H](Cc2ccc(OP(=O)(O)O)cc2)NC(=O)Cc2ccc(F)cc2)c1 [Compound 14, (S)-4-(3-((3-allylbenzyl)amino)-2-(2-(4-fluorophenyl)acetamido)-3-oxopropyl)phenyl phosphate]
Kd (SBC2 [1]; [5]): 2.4 µM | ITC ΔG (SBC2 [3]): -8.61 kcal/mol | ITC ΔH (SBC2 [3]): -6.31 kcal/mol | ITC −TΔS (SBC2 [3]): -2.26 kcal/mol | Kd (SBC2 [3]): 0.48 µM

SOCS2 SH2 (from UniProt O14508)
Kd [4]: 1.1 µM
